Where two headings read alike, the source gives them in different places.
Key:
[1] = system: T. cruzi intracellular amastigotes; test: Intracellular anti-Trypanosoma cruzi image-based assay (amastigotes); format: cell-based; conditions: Trypanosoma cruzi; for Emax: read-out: T. cruzi Emax (maximal % inhibition plateau in dose response curve)
[2] = system: L. donovani MHOM/IN/80/DD8 intracellular amastigotes; test: Leishmania donovani intracellular amastigote assay in THP-1 cells; format: cell-based; conditions: for IC50 / inhibition at 20 µM: Leishmania donovani; for inhibition at 20 µM: THP-1; for activity against L. donovani at 20 μM: PBox sample
[3] = system: Plasmodium falciparum 3D7 asexual blood stage; test: microbe, parasite or virus in culture; conditions: for inhibition at 20 µM: 3D7, read-out: percent inhibition at the top screening dose, P. falciparum 3D7 ABS
3T3 host cells = test: T. cruzi assay, activity against 3T3 host cells; format: cell-based; conditions: reference compound set; for IC50: IA = inactive at 16.4 μM
Procedure: page 4: […] Puromycin, 71 chloroquine, artesunate, DHA, pyronaridine and pyrimethamine were also tested in 72 IC50 format to act as internal reference compounds. 73 74 Intracellular anti-Trypanosoma cruzi Assay Protocol 75 The host cell cytoplasm, in which the parasite resides, is identified by the fluorescent 76 marker, HCS CellMask Green. Parasite and host cell nuclei are detected with the 77 fluorescent DNA intercalator, Hoechst 33342. The Opera® High Content Screening 78 System is used to take images of wells and a spot detection algorithm is used to 79 identify parasites within the cytoplasm. 80 81 Briefly, 1x 10^3 3T3 cells were added to collagen coated 384-well plates and following 82 24 hrs incubation at 37 °C, a multiplicity of infection (MOI) of 5:1 parasite: host cells 83 were added to the plate using a Multidrop liquid handler. Following additional 24 hrs 84 incubation, extracellular parasites were washed from the plates and RPMI with no […] 86 added to all wells. The final volume of media in the primary screening assay, before 87 addition of compound, was modified slightly to 55 µL. One µL of compounds, provided 88 by Compounds Australia, were diluted by the addition of 25 µL of sterile water. This […] 91 donovani). Five microliters of this dilution was added to assay plates. The final […] The final concentrations of compounds in the […] Following 48 hrs incubation in the presence 97 of compounds, wells were fixed, stained and read on the Opera® High Content 98 Screening System to assess compound activity. 99 The Z′-factor, as a measure of assay reproducibility, was determined from a plate […] The positive control used to calculate activity against […] To 103 assess the sensitivity of the T. cruzi assay, activity of the reference compounds 104 benznidazole, NFX, posaconazole and puromycin were determined. […] 108 resazurin as a measure of parasite viability. 109 T. b. brucei trypanosomes were cultured in vitro in HM1-9 medium supplemented with […] Fifty-five µL of logarithmic phase […] 112 incubated for 24 hrs at 37°C /5% CO2. Compounds were subsequently added to the […] Following […] 116 37°C / 5% CO2 followed by 22 hrs at room temperature. […] The percent

[4] = system: T. b. brucei 427 bloodstream trypanosomes; test: T. b. brucei resazurin viability assay; format: cell-based, Trypanosoma brucei brucei; conditions: Trypanosoma brucei; for inhibition at 20 µM: read-out: percent inhibition at the top screening dose, T. brucei brucei
HEK293 cells = test: HEK293 resazurin cell cytotoxicity assay; conditions: reference compound set, top screening dose
[5] = system: NF54-pfs16-LUC-GFP stage IV gametocytes; test: Plasmodium falciparum late stage gametocyte (LSG) image-based assay; format: cell-based; conditions: for IC50 / inhibition at 20 µM: Plasmodium falciparum; for inhibition at 20 µM: NF54, read-out: percent inhibition at the top screening dose, P. falciparum NF54 LSG
P. falciparum ABS = conditions: ChEMBL Data, cited from earlier work
[6] = system: Plasmodium falciparum 3D7 asexual blood stage; conditions: for IC50: read-out: Antiplasmodial IC50 (ABS), PBox compounds, P. falciparum 3D7
HepG2 = conditions: read-out: HepG2 PBox CC50 µM; HepG2 cytotoxicity; ref PBox supporting information; cited from earlier work
[7] = reference compound set, IA = inactive at 16.4 μM, read-out: IC50 T. cruzi intracellular amastigotes
[8] = THP-1, read-out: IC50 L. donovani n = 1, reference compound set, first test, IA = inactive at 20 μM
[9] = THP-1, read-out: IC50 L. donovani n = 2, reference compound set, second test, IA = inactive at 20 μM
[10] = NF54, read-out: IC50 P. falciparum NF54 LSG, reference compound set, 11-point dose response, IA = inactive at 20 μM
[11] = reference compound set, first test, read-out: percent inhibition at the top screening dose, L. donovani n = 1
[12] = reference compound set, second test, read-out: percent inhibition at the top screening dose, L. donovani n = 2
[13] = 3D7, read-out: Antiplasmodial IC50 (ABS), PBox compounds, P. falciparum 3D7
[14] = 3D7, read-out: activity against P. falciparum (novel antiplasmodial actives of the tuberculosis set)
[15] = in-house control stock, not the PBox sample, read-out: IC50 of standard in-house assay control, T. cruzi amastigotes
[16] = 3D7, read-out: IC50 P. falciparum 3D7 ABS
[17] = reference compound set, IA = inactive at 20 μM, read-out: IC50 T. brucei brucei trypomastigotes

Compound | IC50 [1, 7] | IC50 [2, 8] | IC50 [2, 9] | IC50 (3T3 host cells) | IC50 [5, 10] | IC50 [3, 16] | IC50 [4, 17] | other results
CCN(CC)CCCCCCNc1cc(OC)cc2c(C)ccnc12 [Sitamaquine, reference compound] | > 16.4 µM | > 20 µM | > 20 µM | > 16.4 µM | 0.982 µM |  |  | IC50 ([3]; 3D7, read-out: IC50 P. falciparum 3D7 ABS, reference compound set, 11-point dose response, IA = inactive at 20 μM): 2.03 µM; inhibition at 20 µM ([4]; reference compound set): 91%; percent inhibition at the top screening dose, HEK293 (HEK293 cells): 100%
O=C(C1CCN(c2nnnn2-c2ccccc2)CC1)N1CCc2ccccc2C1 [MMV009135] |  |  |  |  |  |  |  | EC50 (P. falciparum ABS; NITD, read-out: NITD (ref 94) EC50): 1.3 µM; EC50 (P. falciparum ABS; TCMDC, read-out: TCMDC (ref 93) EX50): 0.71 µM; activity in the Discovery Biology ABS assay [6]: did not show any activity; activity in the Discovery Biology stage IV gametocyte (LSG) assay [5]: did not show any activity
COc1cc(NC(C)CCCN)c2ncccc2c1 (centres unmarked) [Primaquine, reference compound] |  |  |  |  |  |  |  | inhibition at 16.4 µM ([1]; reference compound set, 16.4 μM, read-out: percent inhibition at the top screening dose, T. cruzi intracellular amastigotes): 94%; inhibition at 20 µM [2, 11]: 33%; inhibition at 20 µM [2, 12]: 79%; inhibition at 20 µM [3]: 91%; inhibition at 16.4 µM (3T3 host cells; 16.4 μM, read-out: percent inhibition at the top screening dose, 3T3 host cells): 73%; inhibition at 20 µM ([4]; reference compound set): 91%; inhibition at 20 µM [5]: 96%
Cc1cnc(N2CCN[C@@H](Cc3ccccc3)C2)nc1Oc1ccc(-n2ccnc2)cc1 [MMV687765] |  |  |  |  |  |  |  | IC50 [3, 13]: 2 µM; IC50 [3, 14]: < 2 µM; IC50 [6]: 2.01 µM; IC50 ([5]; NF54, read-out: Pf Stage IV GAMS Discovery Biology IC50 µM, stage IV gametocytes, Discovery Biology): 4.28 µM; CC50 (HepG2): 14.1 µM
CC1CS(=O)(=O)CCN1/N=C/c1ccc([N+](=O)[O-])o1 (centres unmarked) [Nifurtimox, reference compound] | 1.42 µM | > 20 µM | > 20 µM | > 16.4 µM |  | > 20 µM | 5.38 µM | IC50 [1, 15]: 1.23 µM; Emax ([1]; reference compound set): 100%; inhibition at 20 µM [5]: 39%
CC(=O)NC[C@H]1CN(c2ccc(N3CCOCC3)c(F)c2)C(=O)O1 [Linezolid, reference compound] | > 16.4 µM | > 20 µM | > 20 µM | > 16.4 µM | > 20 µM | > 20 µM | > 20 µM | 
CC(C)/N=c1\cc2n(-c3ccc(Cl)cc3)c3ccccc3nc-2cc1Nc1ccc(Cl)cc1 [Clofazimine, reference compound] | > 16.4 µM | > 20 µM | > 20 µM | > 16.4 µM | > 20 µM |  | > 20 µM | inhibition at 20 µM [3]: 84%
C[C@H]1c2cccc(O)c2C(=O)C2=C(O)[C@]3(O)C(=O)C(C(N)=O)=C(O)[C@@H](N(C)C)[C@@H]3[C@@H](O)[C@@H]21 [Doxycycline, reference compound] | > 16.4 µM | > 20 µM | > 20 µM | > 16.4 µM |  |  | > 20 µM | inhibition at 20 µM [3]: 90%; inhibition at 20 µM [5]: 77%
C[C@@H]1[C@H](O)[C@@H](C)/C=C/C=C/C=C/C=C/C=C/C=C/C=C/[C@H](O[C@@H]2O[C@H](C)[C@@H](O)[C@H](N)[C@@H]2O)C[C@@H]2O[C@](O)(C[C@@H](O)C[C@@H](O)[C@H](O)CC[C@@H](O)C[C@@H](O)CC(=O)O[C@H]1C)C[C@H](O)[C@H]2C(=O)O [Amphotericin B] | > 16.4 µM |  | > 20 µM | > 16.4 µM | > 20 µM |  | > 20 µM | IC50 ([2]; THP-1, in-house control stock, not the PBox sample, two tests, read-out: IC50 of standard in-house assay control, L. donovani): 0.41 µM; inhibition at 20 µM [2, 11]: 100%; activity against L. donovani at 20 μM [2]: not active; inhibition at 20 µM [3]: 87%
c1ccc(C[C@@H]2CN(c3nccc(Oc4ccc(-n5ccnc5)cc4)n3)CCN2)cc1 [MMV687749] |  |  |  |  |  |  |  | IC50 [3, 13]: 2 µM; IC50 [3, 14]: < 2 µM; IC50 [6]: 2.08 µM; CC50 (HepG2): 29 µM
CC[C@@H]([C@H](C)O)n1ncn(-c2ccc(N3CCN(c4ccc(OC[C@@H]5CO[C@@](Cn6cncn6)(c6ccc(F)cc6F)C5)cc4)CC3)cc2)c1=O [Posaconazole, reference compound] | 0.172 µM |  |  | > 16.4 µM |  | 4.1 µM | > 20 µM | IC50 [1, 15]: 0.001 µM; Emax ([1]; reference compound set): 73%; inhibition at 20 µM [2, 11]: 64%; inhibition at 20 µM [2, 12]: 60%; inhibition at 20 µM [5]: 63%
CC(=O)Oc1ccccc1C(=O)Nc1ncc([N+](=O)[O-])s1 [Nitazoxanide, reference compound] | > 16.4 µM |  |  | > 16.4 µM | > 20 µM | > 20 µM |  | inhibition at 20 µM [2, 11]: 44%; inhibition at 20 µM [2, 12]: 41%; inhibition at 20 µM ([4]; reference compound set): 41%
NCC[C@H](O)C(=O)N[C@@H]1C[C@H](N)[C@@H](O[C@H]2O[C@H](CN)[C@@H](O)[C@H](O)[C@H]2O)[C@H](O)[C@H]1O[C@H]1O[C@H](CO)[C@@H](O)[C@H](N)[C@H]1O [Amikacin, reference compound] | > 16.4 µM | > 20 µM | > 20 µM | > 16.4 µM | > 20 µM | > 20 µM | > 20 µM | 
N=C(N)c1ccc(OCCCCCOc2ccc(C(=N)N)cc2)cc1 [Pentamidine, reference compound] | > 16.4 µM | > 20 µM | > 20 µM | > 16.4 µM | 1.43 µM | 0.01 µM | < 0.02 µM | activity against L. donovani at 20 μM [2]: did not show activity; IC50 ([4]; in-house control stock, not the PBox sample, read-out: IC50 of standard in-house assay control, T. brucei brucei): < 0.001 µM; percent inhibition at the top screening dose, HEK293 (HEK293 cells): 75%
O=C(C1CCCCC1)N1CC(=O)N2CCc3ccccc3C2C1 (centres unmarked) [Praziquantel, reference compound] | > 16.4 µM | > 20 µM | > 20 µM | > 16.4 µM | > 20 µM | > 20 µM | > 20 µM | 
[H]/N=C(/N)N[C@H]1[C@H](O)[C@@H](O)[C@H](O[C@@H]2O[C@@H](C)[C@](O)(C=O)[C@H]2O[C@@H]2O[C@@H](CO)[C@H](O)[C@@H](O)[C@@H]2NC)[C@@H](N/C(N)=N\[H])[C@@H]1O [Streptomycin, reference compound] | > 16.4 µM | > 20 µM | > 20 µM | > 16.4 µM |  | > 20 µM | > 20 µM | inhibition at 20 µM [5]: 41%
CCN(CC)C(=O)N1CCN(C)CC1 [Diethylcarbamazine, reference compound] | > 16.4 µM | > 20 µM | > 20 µM | > 16.4 µM | > 20 µM | > 20 µM | > 20 µM | 
COC(=O)Nc1nc2ccc(C(=O)c3ccccc3)cc2[nH]1 [Mebendazole, reference compound] | > 16.4 µM | > 20 µM | > 20 µM | > 16.4 µM | > 20 µM | > 20 µM | > 20 µM | 

Source: publication PMC5571359, “Screening the Medicines for Malaria Venture Pathogen Box across Multiple Pathogens Reclassifies Starting Points for Open-Source Drug Discovery” (Antimicrobial Agents and Chemotherapy, 2017)
